Test results published in patent US20230346827A1 (priority 2020, published 2023).

Columns and labels:
blood coagulation (APTT) = assay: Activated partial thromboplastin time (APTT) in blood of ALS patients after s.c. LMW-DS 1 mg/kg (Example 5); format: in vivo, human
Procedure: This was a single-centre, open single-arm study where the safety, tolerability and efficacy of subcutaneous (s.c.) administered LMW-DS was evaluated in patients with ALS. There were 10 planned visits to the clinic: 1 screening visit divided in 2 parts (Visit 1a and Visit 1b), 5 IMP administration visits (Visit 2 to Visit 6) and 3 follow-up visits (Visit 7 to Visit 9). Each individual patient’s study participation was planned to be approximately 4 months, including the screening and follow-up visits.
The active pharmaceutical ingredient of the IMP was a low molecular weight dextran sulfate (LMW-DS), (ILB®, Tikomed AB, Viken, Sweden, WO 2016/076780). LMW-DS was prepared as a solution for s.c. injection and consisted of 20 mg/mL LMW-DS and 9 mg/mL NaCl. Each glass vial contained 10 mL. The dose administered depended on the patient’s body weight at Visit 2, prior to the first LMW-DS administration. LMW-DS was injected s.c. on alternating sides of the abdomen, thigh or the buttock (in that order of priority). Five injections of 1 mg/kg, with 1 week dosing interval, were administered. Changes in activated partial thromboplastin time (APTT) were recorded from blood samples taken at each visit.

[1] = system: keratinocytes and HDFn + (IL-1β, TNFα, IFNy and TGFβ); assay: BioMAP KF3CT system; format: cell-based, human; conditions: annotated relative to vehicle controls
From the text: Cell types and stimuli used in each system are as follows: 3C system [HUVEC + (IL-1β, TNFα and IFNy)], 4H system [HUVEC + (IL-4 and histamine)], LPS system [PBMC and HUVEC + LPS (TLR4 ligand)], SAg system [PBMC and HUVEC + TCR ligands], BT system [CD19+ B cells and PBMC + (α-IgM and TCR ligands)], BF4T system [bronchial epithelial cells and HDFn + (TNFα and IL-4)], BE3C system [bronchial epithelial cells + (IL-1β, TNFα and IFNy)], CASM3C system [coronary artery smooth muscle cells + (IL-1 β, TNFα and IFNy)], HDF3CGF system [HDFn + (IL-1β, TNFα, IFNy, EGF, bFGF and PDGF-BB)], KF3CT system [keratinocytes and HDFn + (IL-1β, TNFα, IFNy and TGFβ)], MyoF system [differentiated lung myofibroblasts + (TNFα and TGFβ)] and Mphg system [HUVEC and M1 macrophages + Zymosan (TLR2 ligand)].
Systems are derived from either single cell types or co-culture systems. Adherent cell types are cultured in 96 or 384-well plates until confluence, followed by the addition of PBMC (SAg and LPS systems). […] Soluble factors from supernatants are quantified using either HTRF® detection, bead-based multiplex immunoassay or capture ELISA. Overt adverse effects of test agents on cell proliferation and viability (cytotoxicity) are detected by sulforhodamine B (SRB) staining, for adherent cells, and alamarBlue® reduction for cells in suspension. […]

Which “APTT relative change from baseline” value (blood coagulation (APTT); 2 hours post-dosing) does the source give for sodium salt of dextran sulfate [LMW-DS] here?
The value was “+33.5%”.

What about the “APTT relative change from baseline” value (blood coagulation (APTT); 2.5 hours post-dosing) of the same substance?
The value was “+26.5%”.

And the “time at which APTT values returned to pre-dose levels” value (blood coagulation (APTT); post dosing)?
Its value is 6 h.

And the Decreased biomarker activity [1]?
Its Decreased biomarker activity is “MCP-1”.

And the Increased biomarker activity [1]?
The Increased biomarker activity was “IL-8”.
